Measurements reported in the supplement of paper PMC10307832.

Experiments:
Assay in all cases: relative viability (nuclei count vs DMSO), 5 days (fraction); higher = more cells survive
IU1-47 + Phenformin = compound: CC1=CC(=C(N1C2=CC=C(C=C2)Cl)C)C(=O)CN3CCCCC3 [IU1-47] + N=C(N)NC(=N)NCCc1ccccc1 [Phenformin] (partner 250 µM)
In short: (§1)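 Relative viability is defined as nuclei in treated wells over nuclei in vehicle wells. Duplicate plates were run and medians reported. Lung cancer cell lines in 1536-well plates were dosed by pin tool one day after seeding, with one drug or with a fixed anchor-drug dose plus five library-drug doses (not always all listed) in √10 steps, and nuclei were counted after 5 days.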

IU1-47 + OSI-027 = compound: CC1=CC(=C(N1C2=CC=C(C=C2)Cl)C)C(=O)CN3CCCCC3 [IU1-47] + COc1cccc2cc(-c3nc([C@H]4CC[C@H](C(=O)O)CC4)n4ncnc(N)c34)[nH]c12 [OSI-027] (partner 0.5 µM)
In short: as §1

IU1-47 + Linsitinib = compound: CC1=CC(=C(N1C2=CC=C(C=C2)Cl)C)C(=O)CN3CCCCC3 [IU1-47] + C[C@]1(O)C[C@@H](c2nc(-c3ccc4ccc(-c5ccccc5)nc4c3)c3c(N)nccn32)C1 [Linsitinib] (partner 1 µM)
In short: as §1

FG-4592 + Luminespib = compound: Cc1nc(C(=O)NCC(=O)O)c(O)c2ccc(Oc3ccccc3)cc12 [FG-4592] + CCNC(=O)c1noc(-c2cc(C(C)C)c(O)cc2O)c1-c1ccc(CN2CCOCC2)cc1 [Luminespib] (partner 0.01 µM)
In short: as §1

Cell Line	relative viability (IU1-47 + Phenformin; first compound 0.08 µM)	relative viability (IU1-47 + Phenformin; first compound 0.253 µM)	relative viability (IU1-47 + Phenformin; first compound 0.8 µM)	relative viability (IU1-47 + Phenformin; first compound 2.53 µM)	relative viability (IU1-47 + Phenformin; first compound 8 µM)	relative viability (IU1-47 + OSI-027; first compound 0.08 µM)	relative viability (IU1-47 + OSI-027; first compound 0.253 µM)	relative viability (IU1-47 + OSI-027; first compound 0.8 µM)	relative viability (IU1-47 + OSI-027; first compound 2.53 µM)	relative viability (IU1-47 + OSI-027; first compound 8 µM)	relative viability (IU1-47 + Linsitinib; first compound 0.08 µM)	relative viability (IU1-47 + Linsitinib; first compound 0.253 µM)	relative viability (IU1-47 + Linsitinib; first compound 0.8 µM)	relative viability (IU1-47 + Linsitinib; first compound 2.53 µM)	relative viability (IU1-47 + Linsitinib; first compound 8 µM)	relative viability (FG-4592 + Luminespib; first compound 0.08 µM)	relative viability (FG-4592 + Luminespib; first compound 0.253 µM)	relative viability (FG-4592 + Luminespib; first compound 0.8 µM)	relative viability (FG-4592 + Luminespib; first compound 2.53 µM)	relative viability (FG-4592 + Luminespib; first compound 8 µM)
COR-L23	0.414	0.45	0.472	0.438	0.492	0.831	0.977	0.845	0.901	0.563	0.943	1	0.943	0.899	0.982	0.757	0.524	0.645	0.611	0.593
ABC-1	0.212	0.234	0.202	–	0.247	0.462	0.504	0.43	–	0.379	0.887	0.768	0.986	–	0.777	0.501	0.515	–	0.413	0.42
SW 900	0.628	0.539	0.444	0.532	0.661	0.508	0.45	0.677	0.61	0.414	–	–	–	–	–	0.168	0.167	0.174	0.174	0.165
NCI-H838	0.559	0.578	0.549	0.562	0.318	0.405	0.424	0.428	0.417	0.447	1.07	1.07	1.12	1.09	1.07	0.324	0.179	0.263	0.386	0.272
